“And” between values parts separate entries of the source, which are not always exact repeats. Identical values can stand only once. Inconclusive results and toxic doses are left out.
Tested on: L1210 leukemia ip in BDF1 mice, survival T/C
Test: NCI In Vivo Anticancer Drug Screen. Data for tumor model L1210 Leukemia (intraperitoneal) in B6D2F1 (BDF1) mice
Details: endpoint: mean survival time, higher = longer survival
Method in brief: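 Antitumor effect is assessed in tumor-bearing animals. Survival in the compound arm is compared with a vehicle-dosed control arm and expressed as their quotient.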

[1] = dose: 200.0 mg/kg/injection, schedule: Q01DX001 (ip), vehicle: carboxymethylcellulose (CMC)
[2] = dose: 400.0 mg/kg/injection, schedule: Q01DX001 (ip), vehicle: carboxymethylcellulose (CMC)
[3] = dose: 100.0 mg/kg/injection, schedule: Q04DX003 (ip), vehicle: saline
[4] = dose: 200.0 mg/kg/injection, schedule: Q04DX003 (ip), vehicle: saline

CC(=O)Nc1ccn(C2OC(COC(C)=O)C(OC(C)=O)C2OC(C)=O)c(=O)n1 (stereo not given)
T/C (dose: 6.3 mg/kg/injection, schedule: Q## X090 (ip), vehicle: carboxymethylcellulose (CMC)): 94 % of control
T/C (dose: 12.5 mg/kg/injection, schedule: Q## X090 (ip), vehicle: carboxymethylcellulose (CMC)): 102 % of control
T/C (dose: 18.0 mg/kg/injection, schedule: Q03HX024 (ip), vehicle: other): 114 % of control
T/C (dose: 25.0 mg/kg/injection, schedule: Q## X090 (ip), vehicle: carboxymethylcellulose (CMC)): 97 % of control
T/C (dose: 50.0 mg/kg/injection, schedule: Q## X090 (ip), vehicle: carboxymethylcellulose (CMC)): 102 % of control
T/C (dose: 53.0 mg/kg/injection, schedule: Q01DX Z (ip), vehicle: carboxymethylcellulose (CMC)): 106 % of control
T/C (dose: 75.0 mg/kg/injection, schedule: Q03HX024 (ip), vehicle: other): 168 % of control
T/C (dose: 79.0 mg/kg/injection, schedule: Q01DX Z (ip), vehicle: carboxymethylcellulose (CMC)): 107 % of control
T/C (dose: 119.0 mg/kg/injection, schedule: Q01DX Z (ip), vehicle: carboxymethylcellulose (CMC)): 109 % of control
T/C (dose: 125.0 mg/kg/injection, schedule: Q01DX009 (oral), vehicle: carboxymethylcellulose (CMC)): 115 % of control
T/C (dose: 125.0 mg/kg/injection, schedule: Q03HX024 (oral), vehicle: carboxymethylcellulose (CMC)): 111 % of control
T/C (dose: 125.0 mg/kg/injection, schedule: Q03HX024 (oral), vehicle: water): 123 % of control
T/C (dose: 150.0 mg/kg/injection, schedule: Q03HX024 (ip), vehicle: other): 195 % of control
T/C (dose: 150.0 mg/kg/injection, schedule: Q04DX003 (ip), vehicle: other): 108 % of control
T/C (dose: 178.0 mg/kg/injection, schedule: Q01DX Z (ip), vehicle: carboxymethylcellulose (CMC)): 119 % of control
T/C (dose: 178.0 mg/kg/injection, schedule: Q01DX Z (ip), vehicle: saline): 116 % of control
T/C [1]: 101 % of control
T/C (dose: 200.0 mg/kg/injection, schedule: Q01DX010 (oral), vehicle: carboxymethylcellulose (CMC)): 112 % of control
T/C (dose: 250.0 mg/kg/injection, schedule: Q03HX024 (oral), vehicle: carboxymethylcellulose (CMC)): 113 % of control
T/C (dose: 250.0 mg/kg/injection, schedule: Q03HX024 (oral), vehicle: water): 121 % of control
T/C (dose: 300.0 mg/kg/injection, schedule: Q03HX024 (ip), vehicle: other): 228 % of control
T/C (dose: 300.0 mg/kg/injection, schedule: Q04DX003 (ip), vehicle: other): 115 % of control
T/C [2]: 103 % of control
T/C (dose: 400.0 mg/kg/injection, schedule: Q01DX Z (ip), vehicle: saline): 163 % of control
T/C (dose: 500.0 mg/kg/injection, schedule: Q03HX024 (oral), vehicle: carboxymethylcellulose (CMC)): 124 % of control
T/C (dose: 600.0 mg/kg/injection, schedule: Q01DX009 (ip), vehicle: other): 177 % of control and 184 % of control
T/C (dose: 600.0 mg/kg/injection, schedule: Q01DX Z (ip), vehicle: carboxymethylcellulose (CMC)): 124 % of control and 246 % of control
T/C (dose: 600.0 mg/kg/injection, schedule: Q01DX Z (ip), vehicle: saline): 166 % of control
T/C (dose: 800.0 mg/kg/injection, schedule: Q01DX001 (ip), vehicle: carboxymethylcellulose (CMC)): 101 % of control
T/C (dose: 900.0 mg/kg/injection, schedule: Q01DX Z (ip), vehicle: carboxymethylcellulose (CMC)): 175 % of control
T/C (dose: 1000.0 mg/kg/injection, schedule: Q03HX024 (oral), vehicle: carboxymethylcellulose (CMC)): 122 % of control
T/C (dose: 1000.0 mg/kg/injection, schedule: Q03HX024 (oral), vehicle: water): 208 % of control
T/C (dose: 1200.0 mg/kg/injection, schedule: Q01DX009 (ip), vehicle: other): 213 % of control and 228 % of control
T/C (dose: 1200.0 mg/kg/injection, schedule: Q04DX003 (ip), vehicle: other): 159 % of control
T/C (dose: 1350.0 mg/kg/injection, schedule: Q01DX Z (ip), vehicle: carboxymethylcellulose (CMC)): 295 % of control
T/C (dose: 1600.0 mg/kg/injection, schedule: Q01DX001 (ip), vehicle: carboxymethylcellulose (CMC)): 124 % of control
T/C (dose: 1600.0 mg/kg/injection, schedule: Q01DX010 (oral), vehicle: carboxymethylcellulose (CMC)): 214 % of control
T/C (dose: 2000.0 mg/kg/injection, schedule: Q03HX024 (oral), vehicle: water): 226 % of control
T/C (dose: 2400.0 mg/kg/injection, schedule: Q01DX009 (ip), vehicle: other): 112 % of control
T/C (dose: 2400.0 mg/kg/injection, schedule: Q04DX003 (ip), vehicle: other): 214 % of control

Clc1ccc(COC(Cn2ccnc2)c2ccc(Cl)cc2Cl)cc1 (stereo not given)
T/C (dose: 25.0 mg/kg/injection, schedule: Q04DX002 (ip), vehicle: DMSO): 93 % of control
T/C (dose: 50.0 mg/kg/injection, schedule: Q04DX002 (ip), vehicle: DMSO): 93 % of control
T/C (dose: 100.0 mg/kg/injection, schedule: Q04DX002 (ip), vehicle: DMSO): 97 % of control

O=C1c2ccccc2-c2cc(Cl)c([N+](=O)[O-])cc21
T/C (dose: 50.0 mg/kg/injection, schedule: Q01DX001 (ip), vehicle: carboxymethylcellulose (CMC)): 98 % of control
T/C (dose: 100.0 mg/kg/injection, schedule: Q01DX001 (ip), vehicle: carboxymethylcellulose (CMC)): 96 % of control
T/C [1]: 98 % of control
T/C [2]: 91 % of control

CC1=NNC(=O)CC1
T/C [3]: 102 % of control
T/C [4]: 104 % of control
T/C (dose: 400.0 mg/kg/injection, schedule: Q04DX003 (ip), vehicle: saline): 96 % of control

CN(C)CCOC(c1ccccc1)c1ccccc1
T/C (dose: 3.12 mg/kg/injection, schedule: Q01DX009 (ip), vehicle: saline): 92 % of control and 96 % of control
T/C (dose: 6.25 mg/kg/injection, schedule: Q01DX009 (ip), vehicle: saline): 102 % of control and 107 % of control
T/C (dose: 12.5 mg/kg/injection, schedule: Q01DX009 (ip), vehicle: saline): 100 % of control and 114 % of control
T/C (dose: 25.0 mg/kg/injection, schedule: Q01DX009 (ip), vehicle: saline): 100 % of control and 102 % of control
T/C (dose: 25.0 mg/kg/injection, schedule: Q04DX003 (ip), vehicle: saline): 97 % of control
T/C (dose: 50.0 mg/kg/injection, schedule: Q01DX009 (ip), vehicle: saline): 117 % of control and 91 % of control
T/C (dose: 50.0 mg/kg/injection, schedule: Q04DX003 (ip), vehicle: saline): 111 % of control

CN/C([S-])=N/N=C/C(=N/N=C(\[S-])NC)c1ccccc1.[Zn+2]
T/C (dose: 6.25 mg/kg/injection, schedule: Q04DX002 (ip), vehicle: Klucel (hydroxypropylcellulose) (HPC)): 101 % of control
T/C (dose: 12.5 mg/kg/injection, schedule: Q04DX002 (ip), vehicle: Klucel (hydroxypropylcellulose) (HPC)): 97 % of control

CCCCCCC(=O)C1OC1CCCCCCCCC(=O)O (stereo not given)
T/C (dose: 100.0 mg/kg/injection, schedule: Q04DX002 (ip), vehicle: other): 112 % of control
T/C (dose: 400.0 mg/kg/injection, schedule: Q04DX002 (ip), vehicle: other): 94 % of control

O=C(Nc1cc([N+](=O)[O-])ccc1F)N(C1CCCCC1)C1CCCCC1
T/C (dose: 100.0 mg/kg/injection, schedule: Q04DX003 (ip), vehicle: Klucel (hydroxypropylcellulose) (HPC)): 87 % of control
T/C (dose: 200.0 mg/kg/injection, schedule: Q04DX003 (ip), vehicle: Klucel (hydroxypropylcellulose) (HPC)): 96 % of control
T/C (dose: 400.0 mg/kg/injection, schedule: Q04DX003 (ip), vehicle: Klucel (hydroxypropylcellulose) (HPC)): 104 % of control

COC1CCCC[CH]1[Hg][Br] (stereo not given)
T/C (dose: 0.78 mg/kg/injection, schedule: Q01DX009 (ip), vehicle: saline with Tween-80): 90 % of control
T/C (dose: 1.56 mg/kg/injection, schedule: Q01DX009 (ip), vehicle: saline with Tween-80): 96 % of control
T/C (dose: 3.13 mg/kg/injection, schedule: Q01DX009 (ip), vehicle: saline with Tween-80): 96 % of control
T/C (dose: 12.5 mg/kg/injection, schedule: Q01DX009 (ip), vehicle: saline with Tween-80): 93 % of control

CC/C=C(CC)/C(CC)=C(\Br)CC
T/C [3]: 94 % of control
T/C [4]: 92 % of control

Cc1cccc(C)c1C1=CCCCC1
T/C (dose: 50.0 mg/kg/injection, schedule: Q01DX001 (ip), vehicle: saline): 108 % of control
T/C (dose: 100.0 mg/kg/injection, schedule: Q01DX001 (ip), vehicle: saline): 104 % of control
T/C (dose: 200.0 mg/kg/injection, schedule: Q01DX001 (ip), vehicle: saline): 104 % of control
T/C (dose: 400.0 mg/kg/injection, schedule: Q01DX001 (ip), vehicle: saline): 110 % of control

C(=NCC1CCC(CN=Cc2ccco2)CC1)c1ccco1 (stereo not given)
T/C (dose: 100.0 mg/kg/injection, schedule: Q01DX009 (ip), vehicle: saline with Tween-80): 94 % of control
T/C (dose: 100.0 mg/kg/injection, schedule: Q04DX003 (ip), vehicle: saline with Tween-80): 109 % of control
T/C (dose: 200.0 mg/kg/injection, schedule: Q01DX009 (ip), vehicle: saline with Tween-80): 98 % of control
T/C (dose: 200.0 mg/kg/injection, schedule: Q04DX003 (ip), vehicle: saline with Tween-80): 102 % of control
T/C (dose: 400.0 mg/kg/injection, schedule: Q01DX009 (ip), vehicle: saline with Tween-80): 100 % of control
T/C (dose: 400.0 mg/kg/injection, schedule: Q04DX003 (ip), vehicle: saline with Tween-80): 106 % of control

From PubChem BioAssay AID248 (DTP/NCI, 2004)
